Consider one molecule from patent US8943743B2, “Device for attracting and controlling the coffee berry borer, Hypothenemus hampei (Coleoptera: Scolytidae)” (Plato Industries Ltd, priority 2008, dated 2015).

Assay [1] relates to coffee berry borer (CBB), Hypothenemus hampei. The assay is described as follows: Second field study 2008 near Naranjo, Costa Rica: damaged berries 70 days after treatment. In kind it is in vivo. Conditions: Costa Rica 2008, 2500 m^2 blocks, 20 TMBs per hectare, 70 days after treatments were initiated. Here is the method: A second study was conducted in 2008 near Naranjo, Costa Rica. In this study, blocks treated with either blue and red TMBs had fewer damaged berries 70 days after treatments were initiated than did the untreated block or the block treated with endosulfan. Each block was 2500 m^2 in size and was treated with 20 TMBs per hectare.

Assay [2] shares this test system. The assay is described as follows: Third field study 2008 near Alajuela, Costa Rica: damaged berries 70 days after treatment. In kind it is in vivo. Conditions: Costa Rica 2008, 2500 m^2 blocks, 20 TMBs per hectare, 70 days after treatments were initiated. Here is the method:
A third study was conducted in 2008 near Alajuela, Costa Rica. In this study, 2500 m^2 blocks treated with either blue and red TMBs at a rate of 20 TMBs per hectare had fewer damaged berries 70 days after treatments were initiated than did the untreated block, the block treated with endosulfan, or the block treated with red plastic traps.

Consider `O=S1OCC2C(CO1)C1(Cl)C(Cl)=C(Cl)C2(Cl)C1(Cl)Cl` (centres unmarked) [endosulfan], for which the “Mean % infested berries” value was determined as 1.15% in assay [1] and 5.9% in assay [2].
